# Source: the kinase profiling compilation of Christmann-Franck et al. (2016)
# Tests used:
# Assay in all cases: KINOMEscan competition binding
# Conditions in all cases: compound 10.0 µM
# SYK (human) = SYK (human) (UniProt P43405)
# HCK (human) = HCK (human) (UniProt P08631)
# PRKG2 (human) = PRKG2 (human) (UniProt Q13237)
# CSK (human) = CSK (human) (UniProt P41240)
# LTK (human) = LTK (human) (UniProt P29376)
# DCLK1 (human) = DCLK1 (human) (UniProt O15075)
# ABL2 (human) = ABL2 (human) (UniProt P42684)
# BTK (human) = BTK (human) (UniProt Q06187)
# BRSK1 (human) = BRSK1 (human) (UniProt Q8TDC3)
# STK32B (human) = STK32B (human) (UniProt Q9NY57)
# TBK1 (human) = TBK1 (human) (UniProt Q9UHD2)
# [1] = test system: PIK3CA (human), P42336 [H1047L]
# TGFBR1 (human) = TGFBR1 (human) (UniProt P36897)
# TSSK1B (human) = TSSK1B (human) (UniProt Q9BXA7)
# PRPF4B (human) = PRPF4B (human) (UniProt Q13523)
# MAPK6 (human) = MAPK6 (human) (UniProt Q16659)
# [2] = test system: PIK3CA (human), P42336 [H1047Y]
# CDK17 (human) = CDK17 (human) (UniProt Q00537)
# EPHA8 (human) = EPHA8 (human) (UniProt P29322)
# [3] = test system: RET (human), P07949 [V804L]
# NUAK1 (human) = NUAK1 (human) (UniProt O60285)
# ANKK1 (human) = ANKK1 (human) (UniProt Q8NFD2)
# PIP5K1A (human) = PIP5K1A (human) (UniProt Q99755)
# [4] = test system: KIT (human), P10721 [L576P]
# CDK14 (human) = CDK14 (human) (UniProt O94921)
# DAPK2 (human) = DAPK2 (human) (UniProt Q9UIK4)
# ACVR2B (human) = ACVR2B (human) (UniProt Q13705)
# RPS6KA4 KD1 (human) = RPS6KA4 KD1 (human) (UniProt O75676)
# TIE1 (human) = TIE1 (human) (UniProt P35590)
# STK33 (human) = STK33 (human) (UniProt Q9BYT3)
# RPS6KA1 KD1 (human) = RPS6KA1 KD1 (human) (UniProt Q15418)
# HIPK2 (human) = HIPK2 (human) (UniProt Q9H2X6)
# MYLK2 (human) = MYLK2 (human) (UniProt Q9H1R3)
# LYN (human) = LYN (human) (UniProt P07948)
# YES1 (human) = YES1 (human) (UniProt P07947)
# EPHA5 (human) = EPHA5 (human) (UniProt P54756)
# [5] = test system: EIF2AK4 KD2 (human), Q9P2K8 [S808G]
# RPS6KA5 KD2 (human) = RPS6KA5 KD2 (human) (UniProt O75582)
# ERN1 (human) = ERN1 (human) (UniProt O75460)
# FGR (human) = FGR (human) (UniProt P09769)
# CDK18 (human) = CDK18 (human) (UniProt Q07002)
# PIK3CA (human), P42336 [H1047Y], sequence (P42336 whole entry H1047Y, looked up): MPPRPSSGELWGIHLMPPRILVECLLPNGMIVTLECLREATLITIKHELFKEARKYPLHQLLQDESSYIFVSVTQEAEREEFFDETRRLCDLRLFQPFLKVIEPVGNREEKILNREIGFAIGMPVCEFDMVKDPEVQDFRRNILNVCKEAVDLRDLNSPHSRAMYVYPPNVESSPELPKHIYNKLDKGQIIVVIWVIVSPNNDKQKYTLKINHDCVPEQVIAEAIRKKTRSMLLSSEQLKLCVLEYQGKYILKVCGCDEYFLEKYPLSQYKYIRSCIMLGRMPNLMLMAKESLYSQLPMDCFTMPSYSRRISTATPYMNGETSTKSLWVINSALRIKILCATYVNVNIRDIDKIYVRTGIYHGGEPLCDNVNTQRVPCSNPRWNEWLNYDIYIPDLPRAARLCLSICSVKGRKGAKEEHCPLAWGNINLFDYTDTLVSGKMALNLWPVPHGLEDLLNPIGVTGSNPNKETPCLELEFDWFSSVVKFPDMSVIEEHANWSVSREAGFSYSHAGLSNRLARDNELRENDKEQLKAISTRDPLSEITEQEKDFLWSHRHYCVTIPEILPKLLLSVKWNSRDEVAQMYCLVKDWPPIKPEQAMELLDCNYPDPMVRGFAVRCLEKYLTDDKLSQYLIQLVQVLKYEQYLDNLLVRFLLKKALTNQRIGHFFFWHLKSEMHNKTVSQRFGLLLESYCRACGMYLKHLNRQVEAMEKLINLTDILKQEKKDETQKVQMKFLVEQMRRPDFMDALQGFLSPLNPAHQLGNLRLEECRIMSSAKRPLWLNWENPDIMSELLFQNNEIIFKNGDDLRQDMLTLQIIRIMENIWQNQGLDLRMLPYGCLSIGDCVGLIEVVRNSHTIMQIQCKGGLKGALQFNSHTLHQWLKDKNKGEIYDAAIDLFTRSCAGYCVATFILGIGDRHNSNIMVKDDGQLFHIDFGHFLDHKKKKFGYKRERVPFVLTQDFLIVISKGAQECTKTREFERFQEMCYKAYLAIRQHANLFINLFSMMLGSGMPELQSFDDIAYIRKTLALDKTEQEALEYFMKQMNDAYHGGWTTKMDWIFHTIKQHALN
# PIK3CA (human), P42336 [H1047L], sequence (P42336 whole entry H1047L, looked up): as the sequence (P42336 whole entry H1047Y, looked up) above, with Y1047L counted along it
# PRKG2 (human), sequence (Q13237 whole entry, looked up): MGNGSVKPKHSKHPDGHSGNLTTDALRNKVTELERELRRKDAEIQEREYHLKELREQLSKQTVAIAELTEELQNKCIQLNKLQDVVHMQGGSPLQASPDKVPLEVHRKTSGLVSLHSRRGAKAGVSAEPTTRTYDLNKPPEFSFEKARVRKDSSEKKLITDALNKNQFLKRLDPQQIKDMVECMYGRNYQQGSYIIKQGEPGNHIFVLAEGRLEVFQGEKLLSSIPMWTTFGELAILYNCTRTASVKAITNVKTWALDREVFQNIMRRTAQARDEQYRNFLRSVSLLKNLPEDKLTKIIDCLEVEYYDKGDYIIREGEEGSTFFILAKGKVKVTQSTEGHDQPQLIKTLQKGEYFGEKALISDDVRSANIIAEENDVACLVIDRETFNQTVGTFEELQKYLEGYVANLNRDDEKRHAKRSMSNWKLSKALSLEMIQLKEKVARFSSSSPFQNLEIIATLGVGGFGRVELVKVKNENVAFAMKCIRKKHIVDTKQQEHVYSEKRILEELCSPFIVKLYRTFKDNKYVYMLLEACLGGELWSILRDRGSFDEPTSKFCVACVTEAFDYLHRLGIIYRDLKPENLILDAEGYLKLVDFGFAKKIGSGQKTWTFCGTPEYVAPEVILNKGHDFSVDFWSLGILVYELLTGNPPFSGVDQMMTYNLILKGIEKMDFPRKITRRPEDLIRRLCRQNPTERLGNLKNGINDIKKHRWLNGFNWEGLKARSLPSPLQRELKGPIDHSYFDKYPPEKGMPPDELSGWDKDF
# HIPK2 (human), sequence (Q9H2X6 whole entry, looked up): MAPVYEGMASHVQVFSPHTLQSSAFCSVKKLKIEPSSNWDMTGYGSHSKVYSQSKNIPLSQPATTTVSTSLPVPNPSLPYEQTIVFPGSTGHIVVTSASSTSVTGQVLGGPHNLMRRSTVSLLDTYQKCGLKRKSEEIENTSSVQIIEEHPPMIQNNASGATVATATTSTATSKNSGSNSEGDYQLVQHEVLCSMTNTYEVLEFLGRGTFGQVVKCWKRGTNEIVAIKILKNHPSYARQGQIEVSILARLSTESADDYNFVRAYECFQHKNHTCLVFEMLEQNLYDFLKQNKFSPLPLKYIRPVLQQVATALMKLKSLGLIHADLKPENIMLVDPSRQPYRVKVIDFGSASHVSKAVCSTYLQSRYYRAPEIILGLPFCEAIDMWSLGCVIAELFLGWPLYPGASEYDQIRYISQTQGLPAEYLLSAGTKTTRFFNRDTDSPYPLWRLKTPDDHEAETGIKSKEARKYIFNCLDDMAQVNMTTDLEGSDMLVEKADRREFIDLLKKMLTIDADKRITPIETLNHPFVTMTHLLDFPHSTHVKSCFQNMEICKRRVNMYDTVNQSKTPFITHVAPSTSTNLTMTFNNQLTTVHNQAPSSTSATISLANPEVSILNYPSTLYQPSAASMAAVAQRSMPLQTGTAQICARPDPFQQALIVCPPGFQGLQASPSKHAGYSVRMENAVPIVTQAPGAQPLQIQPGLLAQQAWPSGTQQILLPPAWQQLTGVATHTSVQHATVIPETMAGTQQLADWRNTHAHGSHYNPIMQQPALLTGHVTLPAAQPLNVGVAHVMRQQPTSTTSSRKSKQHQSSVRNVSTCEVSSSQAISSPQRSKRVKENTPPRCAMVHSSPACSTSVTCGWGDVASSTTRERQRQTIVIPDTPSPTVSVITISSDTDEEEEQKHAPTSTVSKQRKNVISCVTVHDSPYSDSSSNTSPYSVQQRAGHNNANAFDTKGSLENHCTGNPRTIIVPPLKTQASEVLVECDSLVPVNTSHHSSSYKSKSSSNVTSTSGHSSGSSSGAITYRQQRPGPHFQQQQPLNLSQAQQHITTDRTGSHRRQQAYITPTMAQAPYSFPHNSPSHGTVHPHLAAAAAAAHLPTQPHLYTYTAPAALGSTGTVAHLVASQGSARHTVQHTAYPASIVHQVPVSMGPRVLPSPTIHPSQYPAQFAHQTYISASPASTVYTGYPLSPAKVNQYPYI
# TSSK1B (human), sequence (Q9BXA7 whole entry, looked up): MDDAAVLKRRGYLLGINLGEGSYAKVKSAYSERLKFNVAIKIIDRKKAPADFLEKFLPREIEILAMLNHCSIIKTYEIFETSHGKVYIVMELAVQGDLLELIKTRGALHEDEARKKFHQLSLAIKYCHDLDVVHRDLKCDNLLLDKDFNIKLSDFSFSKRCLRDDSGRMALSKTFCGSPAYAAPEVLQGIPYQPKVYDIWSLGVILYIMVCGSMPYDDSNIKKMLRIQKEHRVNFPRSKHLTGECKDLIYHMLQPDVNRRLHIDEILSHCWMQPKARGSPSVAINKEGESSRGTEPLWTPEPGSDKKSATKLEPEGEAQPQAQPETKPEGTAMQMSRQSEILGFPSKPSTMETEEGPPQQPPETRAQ
# STK32B (human), sequence (Q9NY57 whole entry, looked up): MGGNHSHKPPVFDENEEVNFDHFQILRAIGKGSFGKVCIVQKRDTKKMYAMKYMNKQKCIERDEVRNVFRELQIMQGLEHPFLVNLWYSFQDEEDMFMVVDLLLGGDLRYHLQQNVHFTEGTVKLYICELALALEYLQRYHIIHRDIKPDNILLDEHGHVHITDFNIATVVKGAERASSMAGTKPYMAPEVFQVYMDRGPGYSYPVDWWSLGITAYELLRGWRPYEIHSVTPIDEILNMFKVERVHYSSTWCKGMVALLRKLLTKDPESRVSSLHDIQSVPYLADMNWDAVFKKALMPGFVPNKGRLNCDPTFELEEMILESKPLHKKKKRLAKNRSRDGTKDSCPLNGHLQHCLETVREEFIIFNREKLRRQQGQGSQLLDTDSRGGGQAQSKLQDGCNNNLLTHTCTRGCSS
# LTK (human), sequence (P29376 whole entry, looked up): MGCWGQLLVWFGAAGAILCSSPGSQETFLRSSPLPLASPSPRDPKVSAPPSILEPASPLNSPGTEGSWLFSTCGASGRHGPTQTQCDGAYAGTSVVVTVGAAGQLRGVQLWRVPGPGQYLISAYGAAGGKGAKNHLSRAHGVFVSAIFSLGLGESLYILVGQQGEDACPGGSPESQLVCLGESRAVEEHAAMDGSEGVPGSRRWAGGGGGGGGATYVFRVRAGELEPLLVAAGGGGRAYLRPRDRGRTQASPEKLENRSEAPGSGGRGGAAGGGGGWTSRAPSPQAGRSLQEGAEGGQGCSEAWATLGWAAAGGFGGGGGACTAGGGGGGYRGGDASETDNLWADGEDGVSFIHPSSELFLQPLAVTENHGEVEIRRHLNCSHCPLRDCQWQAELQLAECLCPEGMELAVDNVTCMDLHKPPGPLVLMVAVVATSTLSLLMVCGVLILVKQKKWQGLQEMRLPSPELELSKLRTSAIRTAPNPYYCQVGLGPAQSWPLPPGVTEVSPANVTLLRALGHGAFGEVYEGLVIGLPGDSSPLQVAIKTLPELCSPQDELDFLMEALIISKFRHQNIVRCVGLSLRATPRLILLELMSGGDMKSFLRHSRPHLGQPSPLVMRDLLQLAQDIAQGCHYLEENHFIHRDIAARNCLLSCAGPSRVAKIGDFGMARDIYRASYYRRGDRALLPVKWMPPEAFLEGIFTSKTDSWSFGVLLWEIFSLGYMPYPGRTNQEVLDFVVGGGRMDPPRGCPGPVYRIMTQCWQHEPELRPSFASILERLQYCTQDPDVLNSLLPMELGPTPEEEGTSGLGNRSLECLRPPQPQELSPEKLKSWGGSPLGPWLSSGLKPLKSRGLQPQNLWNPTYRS
smiles,measurement,setting,value
Cn1cc(C2=C(c3ccc(Cl)cc3Cl)C(=O)NC2=O)c2ccccc21,"kinase still bound, per cent of control",SYK (human),92%
same,"kinase still bound, per cent of control",HCK (human),100%
same,"kinase still bound, per cent of control",PRKG2 (human),73%
same,"kinase still bound, per cent of control",CSK (human),100%
same,"kinase still bound, per cent of control",LTK (human),100%
same,"kinase still bound, per cent of control",DCLK1 (human),100%
same,"kinase still bound, per cent of control",ABL2 (human),93%
same,"kinase still bound, per cent of control",BTK (human),100%
same,"kinase still bound, per cent of control",BRSK1 (human),90%
same,"kinase still bound, per cent of control",STK32B (human),100%
same,"kinase still bound, per cent of control",TBK1 (human),90%
same,"kinase still bound, per cent of control",[1],100%
same,"kinase still bound, per cent of control",TGFBR1 (human),96%
same,"kinase still bound, per cent of control",TSSK1B (human),100%
same,"kinase still bound, per cent of control",PRPF4B (human),100%
same,"kinase still bound, per cent of control",MAPK6 (human),100%
same,"kinase still bound, per cent of control",[2],100%
same,"kinase still bound, per cent of control",CDK17 (human),12%
same,"kinase still bound, per cent of control",EPHA8 (human),100%
same,"kinase still bound, per cent of control",[3],100%
same,"kinase still bound, per cent of control",NUAK1 (human),90%
same,"kinase still bound, per cent of control",ANKK1 (human),86%
same,"kinase still bound, per cent of control",PIP5K1A (human),100%
same,"kinase still bound, per cent of control",[4],72%
same,"kinase still bound, per cent of control",CDK14 (human),29%
same,"kinase still bound, per cent of control",DAPK2 (human),67%
same,"kinase still bound, per cent of control",ACVR2B (human),100%
same,"kinase still bound, per cent of control",RPS6KA4 KD1 (human),100%
same,"kinase still bound, per cent of control",TIE1 (human),99%
same,"kinase still bound, per cent of control",STK33 (human),100%
same,"kinase still bound, per cent of control",RPS6KA1 KD1 (human),58%
same,"kinase still bound, per cent of control",HIPK2 (human),15%
same,"kinase still bound, per cent of control",MYLK2 (human),100%
same,"kinase still bound, per cent of control",LYN (human),100%
same,"kinase still bound, per cent of control",YES1 (human),100%
same,"kinase still bound, per cent of control",EPHA5 (human),99%
same,"kinase still bound, per cent of control",[5],100%
same,"kinase still bound, per cent of control",RPS6KA5 KD2 (human),100%
same,"kinase still bound, per cent of control",ERN1 (human),100%
same,"kinase still bound, per cent of control",FGR (human),100%
same,"kinase still bound, per cent of control",CDK18 (human),7.4%
